Experimental data as given in patent US20040063738A1, “Substituted heterocyclic phthalic acid diamide arthropodicides” (priority 2003, published 2004).

SMILES: CC(C)NC(=O)c1c(I)cccc1C(=O)Nc1ccc(OCC(F)(F)F)nc1 [Compound 1, 3-iodo-N^2-(1-methylethyl)-N^1-[6-(2,2,2-trifluoroethoxy)-3-pyridinyl]-1,2-benzenedicarboxamide]
- melting point: 220 to 225 °C
